How the values were obtained:
L major/L mexicana [1] = assay: Amastigotes (AM) in mouse or human macrophages (mos), in-vitro; format: cell-based; settings: Lm., Amastigote
From the text: (§1) Amastigotes of Leishmania can be cultivated in a wide range of mammalian cells, some of which may be used in in-vitro screens. These include (1) a Sticker dog sarcoma (fibroblast) cell line, (2) transformed rodent macrophage cell lines, (3) primary isolated mouse peritoneal macrophages (MP mo), and (4) human monocyte-derived macrophages (HM mo). The methods are similar for all models. Amastigote or promastigote infected cells are maintained in a medium containing the drug for 4-7 days, at 37 C for L. donovani and 33-35 C for L. major and L. mexicana. Drug activity is then assessed by counting (I) the number of infected host cells and/or (II) the number of amastigotes/100 host cells.
(§2) In-vitro and in-vivo models were used to test activities of a selection of many compounds. Those activities are summarized in Tables 1-3, showing variation between systems and species. Activities measured in the MP mo and HM mo models have shown the best correlation with results obtained in hamster and mouse models.

L donovani [2] = assay: as above; format: cell-based; settings: Ld., Amastigote
From the text: as §1, §2

T. cruzi [3] = assay: T. cruzi trypomastigote (TRY) in-vitro screen; format: cell-based
Description: (§5) In-vitro chemotherapy screens have for many years used models involving three stages of the T. cruzi life cycle: • (1) Epimastigote. Dividing populations are easily cultivated in a range of defined and semi-defined media, but are equivalent to a vector stage of the life cycle. • (2) Trypomastigote. These are isolated from a rodent host and can be maintained as a non-dividing population for 24-48 h in media. • (3) Amastigote. Dividing populations can be cultivated in muscle cells, fibroblasts and macrophages, following infection with trypomastigotes. After the initial infection, there is normally a period of 4-5 days during which the amastigotes divide before transforming, via the epimastigote stage, back to trypomastigotes which escape from the cell. Drug activity is measured during this 4-5 day period. A dividing host cell population, low infection rate, and the presence of trypomastigotes in the overlay can complicate the interpretation of results.

[4] = system: T.b. brucei, T.b. gambiense and T.b. rhodesiense; assay: Isolated bloodstream trypomastigote (TRY) in-vitro screen; format: cell-based
Description: (§3) Primary screening for new trypanocides has made extensive use of rodent systems, in which host survival time is a simple indicator of drug activity. In-vitro screens have used a variety of trypomastigote types (see Table 3, below). […] Most early in-vitro screens employed a short test in which bloodstream trypomastigotes were isolated from an infected rodent and maintained for up to 24 h in a simple drug-containing media. Two significant modifications of this technique include maintaining isolated bloodstream trypomastigotes in drug-containing media for 3-4 hours at 37° C in micro-titre plates and their subsequent viability assessed by the uptake of radiolabelled precursors or motility and infectivity to mice.
In-vitro studies on isolated bloodstream trypomastigotes were also used in the rational biochemical approaches towards the chemotherapy of T. brucei infections involving inhibitors of carbohydrate catabolism salicyl hydroxamic acid plus glycerol), of polyamine synthesis (methylgyoxal bis-guanylhydrazone and - DFMO), and of surface coat glycoprotein synthesis (Tunicamycin). In these studies, activity of the compounds are shown in-vitro and in-vivo, whereas the sensitivity of isolated bloodstream trypomastigotes to toxic oxygen radicals generated by naphthoquinones was not shown by the parasites in mice. The activity of the standard anti-trypanosomals-melarsoprol, pentamidine and suramin and tested compounds according to the present invention in in-vitro systems is shown in Table 3.
as §2

T. cruzi [5] = assay: T. cruzi intracellular amastigote (AM) in-vitro screen; format: cell-based
Description: Dividing populations can be cultivated in muscle cells, fibroblasts and macrophages, following infection with trypomastigotes. After the initial infection, there is normally a period of 4-5 days during which the amastigotes divide before transforming, via the epimastigote stage, back to trypomastigotes which escape from the cell. Drug activity is measured during this 4-5 day period. A dividing host cell population, low infection rate, and the presence of trypomastigotes in the overlay can complicate the interpretation of results.
Intracellular amastigote models can use a range of muscle (skeletal and cardiac) and fibroblast (e.g. HeLa, HePa) cell lines, macrophages, and chick embryo cells. […] To overcome the problems of overgrowth of the monolayer and a low percentage of infected cells, often associated with the use of cell lines, irradiated rat L6 myoblasts are used.

[6] = system: T.b. brucei, T.b. gambiense and T.b. rhodesiense; assay: Procyclic trypomastigote (TRY) in-vitro screen; format: cell-based; further: key: - no/poor activity,; + fair/moderate activity,; ++ good/excellent activity
Description: as §3, §2

L major/L mexicana [7] = assay: Amastigotes (AM) in cell lines, in-vitro; format: cell-based; settings: Lm., Amastigote; further: key: - no/poor activity,; + fair/moderate activity,; ++ good/excellent activity
From the text: as §1, §2

L donovani [8] = assay: Amastigotes (AM) in cell lines, in-vitro; format: cell-based; settings: Ld., Amastigote; further: key: - no/poor activity,; + fair/moderate activity,; ++ good/excellent activity
From the text: as §1, §2

L major/L mexicana [9] = assay: Amastigote-promastigote (AM-PRO) transformation, in-vitro; format: cell-based; settings: Lm.
L major/L mexicana [10] = assay: Leishmania promastigote (PRO) in-vitro screen; format: cell-based; settings: Lm.
From the text: (§4) Following initial infection, the amastigote is the only form present in the mammalian host, surviving and dividing in various macrophage populations. Differences between the promastigote and amastigote in form and habitat are not matched by known biochemical dissimilarities. However, the drug susceptibility of the cultured promastigote, used in many early chemotherapy screens, contrasts markedly with that of the amastigote (see Table 1, below), most importantly to the clinically used pentavalent antimonials - sodium stibogluconate (Pentostam) and meglumine antimoniate (Glucantime).
as §1, §2

L donovani [11] = assay: Leishmania promastigote (PRO) in-vitro screen; format: cell-based; settings: Ld.
From the text: as §4, §1, §2

[12] = system: T.b. brucei, T.b. gambiense and T.b. rhodesiense; assay: Cultivated bloodstream trypomastigote (TRY) in-vitro screen; format: cell-based
From the text: Culture systems developed in the last decade have used mammalian cell feeder layers to support the growth of dividing populations of bloodstream trypomastigotes of T. brucei spp. Some of these systems have been used in chemotherapy studies, including; (1) bovine fibroblast culture - T. brucei models to test some standard and experimental compounds, (2) murine bone marrow culture - T.b. gambiense model to screen inosine analogues and platinum and hypolipidemic compounds, and (3) Microtus embryonic fibroblast culture (MEF) - T.b. rhodesiense model to test standard and experimental drugs. These systems give a good indication of in-vivo activity (see Table 3). They measure activity against dividing cells rather than specific macromolecular synthesis pathways and can be readily established in micro-titre plates. The MEF and bone marrow cell feeder layers can be used to grow a range of strains of T. brucei spp., offering the possibility of examining variations in drug susceptibility and resistance between strains. The presence of a feeder layer, however, limits the opportunities for the automation of these systems.
as §2

L major/L mexicana [13] = assay: Leishmania mouse/hamster models, in-vivo; settings: Lm. Further: key: - no/poor activity,; + fair/moderate activity,; ++ good/excellent activity.
From the text: as §2

L donovani [14] = assay: Leishmania mouse/hamster models, in-vivo; settings: Ld. Further: key: - no/poor activity,; + fair/moderate activity,; ++ good/excellent activity.
From the text: as §2

T. cruzi [15] = assay: T. cruzi epimastigote (EPI) in-vitro screen; format: cell-based
Description: as §5

T. cruzi [16] = assay: T. cruzi mouse model, in-vivo
From the text: as §2

L donovani [17] = assay: Amastigote-promastigote (AM-PRO) transformation, in-vitro; format: cell-based; settings: Ld.
[18] = system: T.b. brucei, T.b. gambiense and T.b. rhodesiense; assay: African trypanosomiasis mouse model, in-vivo
Description: as §3, §2

SMILES: OC[C@H]1O[C@@H](n2cnc3c(NCc4ccco4)ncnc32)[C@H](O)[C@@H]1O [Furfuryladenosine]
- Activity, AM in mouse or human mos (L major/L mexicana [1]): + +
- Activity, AM in mouse or human mos (L donovani [2]): +
- activity, TRY (T. cruzi [3]; T. cruzi strain Sonya): + (Y,Sonya)
- activity, TRY (T. cruzi [3]; T. cruzi strain Y): + (Y,Sonya)
- activity, isolated bloodstream TRY [4]: + +
- activity, intracellular AM (T. cruzi [5]; T. cruzi strain Sonya): + (Y,Sonya)
- activity, intracellular AM (T. cruzi [5]; T. cruzi strain Y): + (Y,Sonya)
- activity, procyclic TRY [6]: +
- Activity, AM in cell lines (L major/L mexicana [7]): +
- Activity, AM in cell lines (L donovani [8]): -
- Activity, AM-PRO transform-ation (L major/L mexicana [9]): + +
- Activity, PRO (L major/L mexicana [10]): + +
- Activity, PRO (L donovani [11]): + +
- activity, cultivated bloodstream TRY [12]: +
- Activity, mouse/ hamster models (L major/L mexicana [13]): +
- Activity, mouse/ hamster models (L donovani [14]): +
- activity, EPI (T. cruzi [15]; T. cruzi strain MR): ++(Y,MR, Sonya)
- activity, EPI (T. cruzi [15]; T. cruzi strain Sonya): ++(Y,MR, Sonya)
- activity, EPI (T. cruzi [15]; T. cruzi strain Y): ++(Y,MR, Sonya)
- activity, mouse model (T. cruzi [16]; T. cruzi strain Sonya): +
- activity, mouse model (T. cruzi [16]; T. cruzi strain Y): ++
- Activity, AM-PRO transform-ation (L donovani [17]): + +

SMILES: OC[C@H]1O[C@@H](n2cnc3c(NCc4ccccc4)ncnc32)[C@H](O)[C@@H]1O [N6-Benzyladenosine, N^6-benzyladenosine]
- Activity, AM in mouse or human mos (L major/L mexicana [1]): +
- Activity, AM in mouse or human mos (L donovani [2]): +
- activity, TRY (T. cruzi [3]; T. cruzi strain Sonya): + (Y,Sonya)
- activity, TRY (T. cruzi [3]; T. cruzi strain Y): + (Y,Sonya)
- activity, mouse model [18]: + +
- activity, intracellular AM (T. cruzi [5]; T. cruzi strain Sonya): + (Y,Sonya)
- activity, intracellular AM (T. cruzi [5]; T. cruzi strain Y): + (Y,Sonya)
- activity, procyclic TRY [6]: + +
- Activity, AM in cell lines (L major/L mexicana [7]): +
- Activity, AM in cell lines (L donovani [8]): -
- Activity, AM-PRO transform-ation (L major/L mexicana [9]): + +
- Activity, PRO (L major/L mexicana [10]): + +
- Activity, PRO (L donovani [11]): + +
- activity, cultivated bloodstream TRY [12]: + +
- Activity, mouse/ hamster models (L major/L mexicana [13]): -
- Activity, mouse/ hamster models (L donovani [14]): -
- activity, EPI (T. cruzi [15]; T. cruzi strain MR): +(Y,MR, Sonya)
- activity, EPI (T. cruzi [15]; T. cruzi strain Sonya): +(Y,MR, Sonya)
- activity, EPI (T. cruzi [15]; T. cruzi strain Y): +(Y,MR, Sonya)
- activity, mouse model (T. cruzi [16]; T. cruzi strain Sonya): +(Y)+(Sonya)
- activity, mouse model (T. cruzi [16]; T. cruzi strain Y): +(Y)+(Sonya)
- Activity, AM-PRO transform-ation (L donovani [17]): + +

SMILES: CC(C)=CCNc1ncnc2c1ncn2[C@@H]1O[C@H](COP(=O)(O)O)[C@@H](O)[C@H]1O [N6-Isopentenyl Adenosine-5'monophosphate, N^6-(Δ^2-isopentenyl) adenosine-5'-monophosphate]
- Activity, AM in mouse or human mos (L major/L mexicana [1]): + +
- Activity, AM in mouse or human mos (L donovani [2]): +
- activity, TRY (T. cruzi [3]; T. cruzi strain Sonya): ++(Y,Sonya)
- activity, TRY (T. cruzi [3]; T. cruzi strain Y): ++(Y,Sonya)
- activity, mouse model [18]: +
- activity, isolated bloodstream TRY [4]: +
- activity, intracellular AM (T. cruzi [5]; T. cruzi strain Sonya): ++(Y,Sonya)
- activity, intracellular AM (T. cruzi [5]; T. cruzi strain Y): ++(Y,Sonya)
- activity, procyclic TRY [6]: + +
- Activity, AM in cell lines (L major/L mexicana [7]): +
- Activity, AM in cell lines (L donovani [8]): -
- Activity, AM-PRO transform-ation (L major/L mexicana [9]): + +
- Activity, PRO (L major/L mexicana [10]): -
- Activity, PRO (L donovani [11]): + +
- activity, cultivated bloodstream TRY [12]: +
- Activity, mouse/ hamster models (L major/L mexicana [13]): -
- Activity, mouse/ hamster models (L donovani [14]): +
- activity, EPI (T. cruzi [15]; T. cruzi strain MR): +(Y,MR, Sonya)
- activity, EPI (T. cruzi [15]; T. cruzi strain Sonya): +(Y,MR, Sonya)
- activity, EPI (T. cruzi [15]; T. cruzi strain Y): +(Y,MR, Sonya)
- activity, mouse model (T. cruzi [16]; T. cruzi strain Sonya): +
- activity, mouse model (T. cruzi [16]; T. cruzi strain Y): ++
- Activity, AM-PRO transform-ation (L donovani [17]): +
